Like-named read-outs stand apart in the source and are kept apart here. Starred links: 1 amine or outer side, 2 acyl side, 3 side chain; linkers in the order of their positions; H or OH if unused. Non-standard residues stand in square brackets, D forms with d. Residues, ends and D or L forms follow the SMILES beside them. Groups on a side chain read outwards from the residue. No end group written: not given here. *: point of attachment. C20 diacid = O=C(O)CCCCCCCCCCCCCCCCCCC(=O)*; C18 diacid = O=C(O)CCCCCCCCCCCCCCCCC(=O)*; Phe(4-CN) = N#Cc1ccc(C[C@H](N)C(=O)O)cc1; αMePhe(2-F) = C[C@](N)(Cc1ccccc1F)C(=O)O; γGlu = O=C(O)[C@H](CCC(=O)[*:2])N[*:1]; NMeY = CN[C@@H](Cc1ccc(O)cc1)C(=O)O; αMe4Pal = C[C@](N)(Cc1ccncc1)C(=O)O; αMeY = C[C@](N)(Cc1ccc(O)cc1)C(=O)O; αMeF = C[C@](N)(Cc1ccccc1)C(=O)O; 4Pal = N[C@@H](Cc1ccncc1)C(=O)O; αMeL = CC(C)C[C@](C)(N)C(=O)O; αMeS = C[C@](N)(CO)C(=O)O; Orn = NCCC[C@H](N)C(=O)O; AEEA = NCCOCCOCC(=O)O; Aib = CC(C)(N)C(=O)O

What all share (assay type): cell-based
Assay [1] addresses T1, hGIPR (Homo sapiens, UniProt P48546).
T1 sequence (P48546 22-466): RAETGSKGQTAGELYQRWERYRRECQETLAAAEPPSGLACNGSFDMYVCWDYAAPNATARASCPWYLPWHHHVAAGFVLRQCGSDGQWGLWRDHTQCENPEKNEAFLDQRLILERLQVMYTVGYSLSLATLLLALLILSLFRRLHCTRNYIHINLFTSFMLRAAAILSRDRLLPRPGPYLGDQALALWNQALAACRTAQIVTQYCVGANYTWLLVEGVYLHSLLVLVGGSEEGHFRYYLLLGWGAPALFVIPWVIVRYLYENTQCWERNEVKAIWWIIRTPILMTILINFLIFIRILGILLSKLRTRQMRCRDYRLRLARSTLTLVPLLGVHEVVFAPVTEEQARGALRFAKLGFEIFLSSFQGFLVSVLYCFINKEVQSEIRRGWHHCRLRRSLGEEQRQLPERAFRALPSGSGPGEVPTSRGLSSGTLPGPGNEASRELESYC
The assay can be described thus: Functional cAMP activity in the presence of 1% HSA. To be noted: read-out: cAMP Rel EC50, hGIPR.

For assay [2], the target named is T2, hGLP-1R (Homo sapiens, UniProt P43220). Nature of the assay: Functional cAMP activity in the presence of 1% HSA. To be noted: read-out: cAMP Rel EC50, hGLP-1R.
In assay [3] the target is human GcgR (Homo sapiens, UniProt P47871). Nature of the assay: Functional cAMP activity in the presence of 1% HSA. To be noted: read-out: cAMP Rel EC50, hGcgR.
Assay [4] concerns the target T1, hGIPR. Nature of the assay: Functional cAMP activation in the presence of 0.1% casein (no HSA). The settings on record: read-out: Relative cAMP EC50, hGIPR.
Assay [5] addresses T2, hGLP-1R. Described as above. To be noted: read-out: Relative cAMP EC50, hGLP-1R.
Assay [6] has as its target hGcgR (Homo sapiens, UniProt P47871). Described as above. To be noted: read-out: Relative cAMP EC50, hGcgR.
Description: After a 30-minute incubation at 37° C., the resulting increase in intracellular cAMP is quantitatively determined using the CisBio CAMP Dynamic 2 HTRF Assay Kit (62AM4PEJ). Briefly, cAMP levels within the cell are detected by adding the cAMP-d2 conjugate in cell lysis buffer followed by the antibody anti-cAMP-Eu^3+-Cryptate, also in cell lysis buffer.
Intracellular cAMP levels are determined by extrapolation using a standard curve. Dose response curves of compounds are plotted as the percentage of stimulation normalized to minimum (buffer only) and maximum (maximum concentration of each control ligand) values and analyzed using a four parameter non-linear regression fit with a variable slope (Genedata Screener 13). EC50 is the concentration of compound causing half-maximal simulation in a dose response curve. Each relative EC50 value for the Geometric mean calculation is determined from a curve fitting.
Where [7] appears, read: in the presence of 0.1% casein (no HSA), geometric mean.
Setting [8] is: 0.1% casein, no HSA, geometric mean.
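For Relative cAMP EC50, hGIPR in this document: intracellular cAMP rise after 30 min at 37 °C read by HTRF against a standard curve, scaled between buffer alone (0%) and top control ligand concentration (100%), four-parameter fit.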
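For Relative cAMP EC50, hGLP-1R in this document: intracellular cAMP rise after 30 min at 37 °C read by HTRF, normalized between buffer only (0%) and maximal control ligand (100%), four-parameter variable-slope fit.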
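For Relative cAMP EC50, hGcgR in this document: intracellular cAMP rise after 30 min at 37 °C, read by HTRF against a cAMP standard curve, scaled from buffer only (0%) to maximal control ligand response (100%).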

Sequence of human GcgR (P47871 26-477): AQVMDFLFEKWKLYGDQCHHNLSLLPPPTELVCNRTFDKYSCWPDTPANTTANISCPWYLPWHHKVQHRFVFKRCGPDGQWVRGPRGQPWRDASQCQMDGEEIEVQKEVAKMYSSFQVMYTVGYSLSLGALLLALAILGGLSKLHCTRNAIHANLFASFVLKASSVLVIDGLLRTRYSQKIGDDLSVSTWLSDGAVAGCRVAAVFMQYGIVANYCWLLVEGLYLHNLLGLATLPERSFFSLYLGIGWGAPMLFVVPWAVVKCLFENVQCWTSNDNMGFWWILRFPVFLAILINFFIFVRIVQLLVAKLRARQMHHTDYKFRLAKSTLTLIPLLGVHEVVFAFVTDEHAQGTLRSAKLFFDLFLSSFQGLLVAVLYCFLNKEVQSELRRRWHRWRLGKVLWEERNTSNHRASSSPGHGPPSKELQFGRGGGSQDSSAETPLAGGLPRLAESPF
Sequence of hGcgR (P47871 26-477): as above
T2 sequence (P43220 24-463): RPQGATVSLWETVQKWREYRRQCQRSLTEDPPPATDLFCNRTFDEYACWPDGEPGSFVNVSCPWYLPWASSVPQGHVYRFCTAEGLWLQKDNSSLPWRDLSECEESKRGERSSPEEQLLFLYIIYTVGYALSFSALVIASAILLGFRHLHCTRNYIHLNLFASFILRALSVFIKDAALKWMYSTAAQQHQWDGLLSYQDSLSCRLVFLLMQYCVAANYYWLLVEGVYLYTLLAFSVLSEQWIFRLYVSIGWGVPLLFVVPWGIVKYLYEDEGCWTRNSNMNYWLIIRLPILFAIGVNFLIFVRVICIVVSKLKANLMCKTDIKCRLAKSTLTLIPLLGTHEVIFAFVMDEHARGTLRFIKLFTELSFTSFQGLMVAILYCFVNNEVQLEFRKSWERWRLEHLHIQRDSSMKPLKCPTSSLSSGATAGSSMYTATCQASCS

As to “H-[NMeY][Aib]QGTFTSD[4Pal][αMeS]Q[αMeL]LD[Orn]K([dE-γGlu-C18 diacid])AQ[αMe4Pal]QFIQ[αMeY]LIE[Aib]GPSSGAPPPSGGGE-NH2 [Example 1134]”, the EC50 in assay [1] came to 2.41 nM; in assay [2], 78.9 nM; in assay [3], 180 nM; in assay [4] (setting [7]) it was 0.0391 nM; in assay [5] (setting [7]) it was 0.957 nM; in assay [6] (setting [7]) it was 2.57 nM.

Take “Y[Aib]QGT[αMePhe(2-F)]TSD[4Pal]SILLDKK([γGlu-γGlu-C18 diacid])AQ[Aib]AFIEYLQEGGPSSGAPPPSGTEE-NH2 [Example 580]”: the EC50 in assay [1] is 6.29 nM; in assay [2], 55.3 nM; in assay [3], 922 nM; in assay [4], 0.0426 nM; in assay [5], 0.615 nM; in assay [6] it was 7.27 nM.

“H-[NMeY][Aib]QGT[αMeF]TSDYSILLDKIAAK([AEEA-AEEA-γGlu-C20 diacid])AFIEYLIEGGPSSGEPPPSEG-NH2 [Example 299]”: the EC50 came out at 40.2 nM in assay [1]; 380 nM in assay [2]; 1700 nM in assay [3]; 0.137 nM in assay [4] (setting [7]); 0.963 nM in assay [5] (setting [7]); 2.54 nM in assay [6] (setting [7]).

As for “H-Y[Aib]QGT[αMePhe(2-F)]TSD[Phe(4-CN)]SILLDKQAQK([AEEA-γGlu-γGlu-C20 diacid])AFIEYLLEGGPSSGEPPPSEG-NH2 [Example 352]”, the EC50 in assay [1] amounted to 34.1 nM; in assay [2] it was 407 nM; in assay [3] it was 4020 nM; in assay [4] (setting [7]), 0.245 nM; in assay [5] (setting [7]), 0.967 nM; in assay [6] (setting [7]) it was 16.4 nM.

For the molecule “Y[Aib]QGT[αMePhe(2-F)]TSD[4Pal][αMeS]I[αMeL]LD[Orn]K([AEEA-γGlu-C18 diacid])AQ[αMe4Pal]EFI[dE][αMeY]LIEGGPSSGEPPPEGTGE-NH2 [Example 763]”, the EC50 in assay [1] turned out to be 1.16 nM; in assay [2] it was 42.5 nM; in assay [3], 222 nM; in assay [4], 0.00719 nM; in assay [5], 0.302 nM; in assay [6], 1.57 nM.

Consider “H-Y[Aib]QGT[αMePhe(2-F)]TSDYSKLLDEIAQK([AEEA-γGlu-C20 diacid])AFIEYLLEGGPSSGEPPPSEG-NH2 [Example 303]”, for which the EC50 was found to be 44.7 nM in assay [1]; 257 nM in assay [2]; 9950 nM in assay [3]; 0.116 nM in assay [4] (setting [7]); 1.13 nM in assay [5] (setting [7]); 6.1 nM in assay [6] (setting [7]).

As to “H-Y[Aib]QGTFTSDFS[Orn][αMeL]LDKK([AEEA-γGlu-C18 diacid])AQ[Aib]AFIEYLLAGGPSSGEPPPEGS-NH2 [Example 152]”, the EC50 in assay [1] came to 23.2 nM; in assay [2], 491 nM; in assay [3] it was 1090 nM; in assay [4] (setting [7]) it was 0.259 nM; in assay [5] (setting [7]), 4.03 nM; in assay [6] (setting [7]), 6.91 nM.

As to “H-Y[Aib]QGT[αMePhe(2-F)]TSD[4Pal][αMeS]I[αMeL]LD[Orn]K([γGlu-γGlu-C18 diacid])AQ[Aib][Orn]FI[dE][αMeY]LTEGGPSSGEPPPEGTEEE-NH2 [Example 598]”, the concentration for a half-maximal effect (EC50) came out at 3.49 nM in assay [1]; 47.3 nM in assay [2]; 457 nM in assay [3]; 0.0927 nM in assay [4]; 0.886 nM in assay [5]; 8.79 nM in assay [6].

As for “H-Y[Aib]QGT[αMePhe(2-F)]TSD[4Pal][αMeS]I[αMeL]LD[Orn]K([γGlu-γGlu-C18 diacid])AQ[αMe4Pal]EFI[dE][αMeY]LIEGGPSSGAPPPSGGGEEE-NH2 [Example 1219]”, the EC50 in assay [1] worked out at 0.629 nM; in assay [2], 46.8 nM; in assay [3], 168 nM; in assay [4] (setting [8]) it was 0.0101 nM; in assay [5] (setting [8]), 0.624 nM; in assay [6] (setting [8]), 1.64 nM.

For the molecule “H-Y[Aib]QGT[αMePhe(2-F)]TSD[4Pal][αMeS]I[αMeL]LD[Orn]K([AEEA-γGlu-C18 diacid])AQ[αMe4Pal]EFI[dE][αMeY]LVEGGPSSGEPPPSGE-NH2 [Example 750]”, the EC50 in assay [1] was found to be 1.34 nM; in assay [2] it was 39.1 nM; in assay [3], 205 nM; in assay [4] it was 0.00784 nM; in assay [5], 0.302 nM; in assay [6] it was 2 nM.

As to “Y[Aib]QGT[αMePhe(2-F)]TSD[4Pal][αMeS]I[αMeL]LD[Orn]K([AEEA-γGlu-C18 diacid])AQ[αMe4Pal]EFI[dE][αMeY]LIEGGPPS[Aib][Orn]PPPSGSE-NH2 [Example 1198]”, the EC50 in assay [1] was determined as 0.67 nM; in assay [2], 61 nM; in assay [3], 314 nM; in assay [4] (setting [8]), 0.00663 nM; in assay [5] (setting [8]) it was 0.475 nM; in assay [6] (setting [8]), 1.8 nM.

As for “Y[Aib]QGTFTSD[4Pal]SQ[αMeL]LDKK([AEEA-γGlu-C18 diacid])AQ[αMe4Pal]AFIE[αMeY]LIEGGPSSGAPPPEGS-NH2 [Example 852]”, the EC50 was determined as 45.6 nM in assay [1]; 182 nM in assay [2]; 1230 nM in assay [3]; 0.34 nM in assay [4] (setting [7]); 0.871 nM in assay [5] (setting [7]); 2.26 nM in assay [6] (setting [7]).

“Y[Aib]QGTFTSD[4Pal]SK[αMeL]LDKK([AEEA-γGlu-C18 diacid])AQ[Aib]AFIEYLIE[Aib]GESSGEPPPSGE-NH2 [Example 281]”: the EC50 was 25.8 nM in assay [1]; 295 nM in assay [2]; 1370 nM in assay [3]; 0.154 nM in assay [4] (setting [7]); 1.6 nM in assay [5] (setting [7]); 13.7 nM in assay [6] (setting [7]).

In the case of “H-Y[Aib]QGTFTSDFS[Orn][αMeL]LDKK([AEEA-γGlu-C20 diacid])AQ[Aib]AFIEWLLEGGPSSGAPPPEGE-NH2 [Example 101]”, the concentration for a half-maximal effect (EC50) in assay [1] was 133 nM; in assay [2], 1090 nM; in assay [3] it was 2810 nM; in assay [4] (setting [7]), 0.436 nM; in assay [5] (setting [7]), 4.3 nM; in assay [6] (setting [7]) it was 10 nM.

Turning to `CC[C@H](C)[C@H](NC(=O)[C@H](Cc1ccccc1)NC(=O)[C@H](CCCN)NC(=O)C(C)(C)NC(=O)[C@H](CCC(N)=O)NC(=O)[C@H](C)NC(=O)[C@H](CCCCNC(=O)COCCOCCNC(=O)COCCOCCNC(=O)CC[C@H](NC(=O)CCCCCCCCCCCCCCCCC(=O)O)C(=O)O)NC(=O)[C@H](CCCN)NC(=O)[C@H](CC(=O)O)NC(=O)[C@H](CC(C)C)NC(=O)[C@](C)(CC(C)C)NC(=O)[C@@H](NC(=O)[C@](C)(CO)NC(=O)[C@H](Cc1ccc(O)cc1)NC(=O)[C@H](CC(=O)O)NC(=O)[C@H](CO)NC(=O)[C@@H](NC(=O)[C@](C)(Cc1ccccc1F)NC(=O)[C@@H](NC(=O)CNC(=O)[C@H](CCC(N)=O)NC(=O)C(C)(C)NC(=O)[C@@H](N)Cc1ccc(O)cc1)[C@@H](C)O)[C@@H](C)O)[C@@H](C)CC)C(=O)N[C@H](CCC(=O)O)C(=O)N[C@@](C)(Cc1ccc(O)cc1)C(=O)N[C@@H](CC(C)C)C(=O)N[C@@H](CCC(=O)O)C(=O)N[C@@H](CCC(=O)O)C(=O)NCC(=O)NCC(=O)N1CCC[C@H]1C(=O)N[C@@H](CO)C(=O)N[C@@H](CO)C(=O)NCC(=O)N[C@@H](CCC(=O)O)C(=O)N1CCC[C@H]1C(=O)N1CCC[C@H]1C(=O)N1CCC[C@H]1C(=O)N[C@@H](CCC(=O)O)C(N)=O` [Example 402] (H-Y[Aib]QGT[αMePhe(2-F)]TSDY[αMeS]I[αMeL]LD[Orn]K([AEEA-AEEA-γGlu-C18 diacid])AQ[Aib][Orn]FI[dE][αMeY]LEEGGPSSGEPPPE-NH2; N-terminus assumed), the concentration giving a half-maximal response (EC50) in assay [1] amounted to 44.9 nM; in assay [2], 86.6 nM; in assay [3], 1030 nM; in assay [4], 0.123 nM; in assay [5], 0.725 nM; in assay [6] it was 5.66 nM.

What is called EC50 is the midpoint of the concentration-response curve.
